Measured values: patent US20060189811A1, “Process for producing 1,2,4-triazole compound and intermediate therefor” (FUJIYAKUHIN CO., LTD., priority 2004, published 2006)

Test system: serum uric acid level
Assay: Serum uric acid level-lowering action
Type: in vivo
Conditions: male wister rats, oral 0.3 mg/5 mL/Kg in 0.5% MC, blood collected six hours after administration, vs MC group
Method: Serum Uric Acid Level-Lowering Action
To male wister rats of 7 weeks old (4 rats per group) was orally administered compulsorily a test substance suspended in 0.5% aqueous solution of methyl cellulose (MC) in such an amount as to provide 0.3 mg/5 mL/Kg by using a stomach sonde. Six hours after the administration of the test substance, a blood sample was collected from the orbital vein. After allowing to stand at room temperature for 1 hour, the blood sample was centrifuged at 2000×g for 10 minutes to collect serum. […] Lowering rate of serum uric acid level (%)=(1-average serum uric acid level of the group administered with test compound/average serum uric acid level of the group administered with MC)×100

Cc1ccc(S(=O)(=O)O)cc1.N#Cc1cc(-c2nc(-c3ccncc3)n[nH]2)ccn1 [Example 2, 5-(2-cyano-4-pyridyl)-3-(4-pyridyl)-1,2,4-triazole p-toluenesulfonate]
Lowering rate of serum uric acid level: 51.1%
